Test results as given in PMC6001238, “Iterative Chemical Engineering of Vancomycin Leads to Novel Vancomycin Analogs With a High in Vitro Therapeutic Index” (Frontiers in Microbiology, 2018).
Values after ≈ are worked out from the molar mass of the structure shown.

How the values were obtained:
[1] = tested on: E. faecalis VSE 1; assay: MIC, broth microdilution, vancomycin-sensitive E. faecalis (VSE 1); assay type: cell-based, Enterococcus faecalis; conditions: for MIC: Enterococcus faecalis VSE 1 (vancomycin-sensitive), read-out: MIC; for MIC-fold improvement vs. vancomycin: VSE 1, ratio of MIC of vancomycin and MIC of analogue
How it was run: (§1)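 Inhibitory concentrations were read by the CLSI broth microdilution procedure, with water and sterile broth as controls. One experiment added vancomycin (10 μM final) together with each analogue or reference antibiotic.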

[2] = tested on: E. faecalis VRE 6; assay: MIC, broth microdilution, vancomycin-resistant E. faecalis VRE 6 (VanA); assay type: cell-based, Enterococcus faecalis; conditions: for MIC: Enterococcus faecalis VRE 6 (vancomycin-resistant), read-out: MIC; for MIC-fold improvement vs. vancomycin: VRE 6, ratio of MIC of vancomycin and MIC of analogue
How it was run: as §1

[3] = tested on: E. faecalis VRE 53; assay: MIC, broth microdilution, vancomycin-resistant E. faecalis VRE 53 (VanA); assay type: cell-based, Enterococcus faecalis; conditions: for MIC: Enterococcus faecalis VRE 53 (vancomycin-resistant), read-out: MIC; for MIC-fold improvement vs. vancomycin: VRE 53, ratio of MIC of vancomycin and MIC of analogue
How it was run: as §1

[4] = tested on: E. faecalis VRE 29; assay: MIC, broth microdilution, vancomycin-resistant E. faecalis VRE 29 (VanA); assay type: cell-based, Enterococcus faecalis; conditions: for MIC: Enterococcus faecalis VRE 29 (vancomycin-resistant), read-out: MIC; for MIC-fold improvement vs. vancomycin: VRE 29, ratio of MIC of vancomycin and MIC of analogue
How it was run: as §1

[5] = tested on: E. faecalis VRE 37; assay: MIC, broth microdilution, vancomycin-resistant E. faecalis VRE 37 (VanA); assay type: cell-based, Enterococcus faecalis; conditions: for MIC: Enterococcus faecalis VRE 37 (vancomycin-resistant), read-out: MIC; for MIC-fold improvement vs. vancomycin: VRE 37, ratio of MIC of vancomycin and MIC of analogue
How it was run: as §1

[6] = tested on: Murine leukemia (L1210) cells; assay: Cytostatic activity, L1210 cell proliferation; assay type: cell-based; conditions: mean ± SD of three experiments; highest concentration tested 250 µM; 2 days; read-out: Toxicity (IC50) L1210
How it was run: (§2)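 Coulter counter cell counts after 37°C culture with compound; IC50 = concentration giving 50% growth inhibition vs negative control. Incubation: L1210 2 d, CEM 3 d, HeLa 4 d. Suspension density before mixing with an equal volume of dilution: 300,000–500,000 cells/mL.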

[7] = tested on: human T-lymphocyte (CEM) cells; assay: Cytostatic activity, CEM cell proliferation; assay type: cell-based; conditions: mean ± SD of three experiments; highest concentration tested 250 µM; 3 days; read-out: Toxicity (IC50) CEM
How it was run: as §2

[8] = tested on: human cervix carcinoma (HeLa) cells; assay: Cytostatic activity, HeLa cell proliferation; assay type: cell-based; conditions: mean ± SD of three experiments; highest concentration tested 250 µM; 4 days; read-out: Toxicity (IC50) HeLa
How it was run: as §2

[9] = tested on: L1210, CEM and HeLa cell lines; assay: Cytostatic activity, average or summary over L1210, CEM and HeLa; assay type: cell-based; conditions: average of L1210, CEM and HeLa; read-out: Toxicity (IC50) Average
How it was run: as §2

[10] = tested on: S. aureus VSSA (ATCC 6538); assay: MIC, broth microdilution, vancomycin-sensitive S. aureus (VSSA/MSSA, ATCC 6538); assay type: cell-based, Staphylococcus aureus; conditions: for MIC: Staphylococcus aureus VSSA, read-out: MIC; for MIC-fold improvement vs. vancomycin: VSSA, ratio of MIC of vancomycin and MIC of analogue
How it was run: as §1

[11] = tested on: S. aureus VISA/HIP5827; assay: MIC, broth microdilution, vancomycin-intermediate S. aureus VISA HIP5827; assay type: cell-based, Staphylococcus aureus; conditions: for MIC: Staphylococcus aureus VISA/HIP5827, read-out: MIC; for MIC-fold improvement vs. vancomycin: VISA/HIP5827, ratio of MIC of vancomycin and MIC of analogue
How it was run: as §1

[12] = tested on: S. aureus VRSA; assay: MIC, broth microdilution, vancomycin-resistant S. aureus (VRSA); assay type: cell-based, Staphylococcus aureus; conditions: for MIC: Staphylococcus aureus VRSA, read-out: MIC; for MIC-fold improvement vs. vancomycin: VRSA, ratio of MIC of vancomycin and MIC of analogue
How it was run: as §1

[13] = tested on: MRSA KS2; assay: MIC, broth microdilution, MRSA KS2; assay type: cell-based, Staphylococcus aureus; conditions: for MIC-fold improvement vs. vancomycin: MRSA KS2, ratio of MIC of vancomycin and MIC of analogue; for MIC: Staphylococcus aureus MRSA KS2, read-out: MIC
How it was run: as §1

[14] = tested on: MRSA KS6; assay: MIC, broth microdilution, MRSA KS6; assay type: cell-based, Staphylococcus aureus; conditions: for MIC-fold improvement vs. vancomycin: MRSA KS6, ratio of MIC of vancomycin and MIC of analogue; for MIC: Staphylococcus aureus MRSA KS6, read-out: MIC
How it was run: as §1

[15] = tested on: MRSA KS89; assay: MIC, broth microdilution, MRSA KS89; assay type: cell-based, Staphylococcus aureus; conditions: for MIC-fold improvement vs. vancomycin: MRSA KS8, ratio of MIC of vancomycin and MIC of analogue; for MIC: Staphylococcus aureus MRSA KS8, read-out: MIC
How it was run: as §1

[16] = tested on: MRSA KS1; assay: MIC, broth microdilution, MRSA KS1; assay type: cell-based, Staphylococcus aureus; conditions: for MIC-fold improvement vs. vancomycin: MRSA KS1, ratio of MIC of vancomycin and MIC of analogue; for MIC: Staphylococcus aureus MRSA KS1, read-out: MIC
How it was run: as §1

Compound | MIC [1] | MIC-fold improvement vs. vancomycin [1] | MIC [2] | MIC-fold improvement vs. vancomycin [2] | MIC [3] | MIC-fold improvement vs. vancomycin [3] | MIC [4] | MIC-fold improvement vs. vancomycin [4] | MIC [5] | MIC-fold improvement vs. vancomycin [5] | IC50 [6] | IC50 [7] | IC50 [8] | IC50 [9] | MIC [10] | MIC-fold improvement vs. vancomycin [10] | MIC [11] | MIC-fold improvement vs. vancomycin [11] | MIC [12] | MIC-fold improvement vs. vancomycin [12] | further results
CCc1cccc(C)c1NC(=O)CNC(=O)C1NC(=O)C2NC(=O)C(NC(=O)C3NC(=O)C(CC(N)=O)NC(=O)C(NC(=O)C(CC(C)C)NC)C(O)c4ccc(c(Cl)c4)Oc4cc3cc(c4OC3OC(CO)C(O)C(O)C3OC3CC(C)(N)C(O)C(C)O3)Oc3ccc(cc3Cl)C2O)c2ccc(O)c(c2)-c2c(O)cc(O)cc21 (stereo not shown) [Vanc-19] | 1.56 µM (≈ 2.53 µg/mL) | 1 | 3.13 µM (≈ 5.08 µg/mL) | 64 | 25 µM (≈ 40.6 µg/mL) | 16 | 12.5 µM (≈ 20.3 µg/mL) | 32 | 25 µM (≈ 40.6 µg/mL) | 16 | > 250 µM | > 250 µM | 63 ± 5 µM | 188 µM | 0.78 µM (≈ 1.27 µg/mL) | 1 | 3.13 µM (≈ 5.08 µg/mL) | 2 | 12.5 µM (≈ 20.3 µg/mL) | 8 | MIC-fold improvement vs. vancomycin [13]: 1; MIC [13]: 0.78 µM (≈ 1.27 µg/mL); MIC-fold improvement vs. vancomycin [14]: 0.5; MIC [14]: 1.56 µM (≈ 2.53 µg/mL); MIC-fold improvement vs. vancomycin [15]: 1; MIC [15]: 0.78 µM (≈ 1.27 µg/mL); MIC-fold improvement vs. vancomycin [16]: 1; MIC [16]: 0.78 µM (≈ 1.27 µg/mL)
CN[C@H](CC(C)C)C(=O)N[C@H]1C(=O)N[C@@H](CC(N)=O)C(=O)N[C@H]2C(=O)N[C@H]3C(=O)N[C@H](C(=O)N[C@H](C(=O)NCC(=O)Nc4ccc(Oc5ccccc5)cc4)c4cc(O)cc(O)c4-c4cc3ccc4O)[C@H](O)c3ccc(c(Cl)c3)Oc3cc2cc(c3O[C@@H]2O[C@H](CO)[C@@H](O)[C@H](O)[C@H]2O[C@H]2C[C@](C)(N)[C@H](O)[C@H](C)O2)Oc2ccc(cc2Cl)[C@H]1O [Vanc-71] | 0.78 µM (≈ 1.31 µg/mL) | 2 | 3.13 µM (≈ 5.24 µg/mL) | 64 | 6.25 µM (≈ 10.5 µg/mL) | 64 | 6.25 µM (≈ 10.5 µg/mL) | 64 | 6.25 µM (≈ 10.5 µg/mL) | 64 | > 250 µM | 137 ± 41 µM | 91 ± 36 µM | 159 µM | 0.39 µM (≈ 0.653 µg/mL) | 2 | 0.78 µM (≈ 1.31 µg/mL) | 8 | 1.56 µM (≈ 2.61 µg/mL) | 64 | MIC-fold improvement vs. vancomycin [13]: 4; MIC [13]: 0.20 µM (≈ 0.335 µg/mL); MIC-fold improvement vs. vancomycin [14]: 4; MIC [14]: 0.20 µM (≈ 0.335 µg/mL); MIC-fold improvement vs. vancomycin [15]: 4; MIC [15]: 0.20 µM (≈ 0.335 µg/mL); MIC-fold improvement vs. vancomycin [16]: 4; MIC [16]: 0.20 µM (≈ 0.335 µg/mL)
CCCCCc1ccc(NC(=O)CNC(=O)[C@H]2NC(=O)[C@H]3NC(=O)[C@H](NC(=O)[C@@H]4NC(=O)[C@H](CC(N)=O)NC(=O)[C@H](NC(=O)[C@@H](CC(C)C)NC)[C@H](O)c5ccc(c(Cl)c5)Oc5cc4cc(c5O[C@@H]4O[C@H](CO)[C@@H](O)[C@H](O)[C@H]4O[C@H]4C[C@](C)(N)[C@H](O)[C@H](C)O4)Oc4ccc(cc4Cl)[C@H]3O)c3ccc(O)c(c3)-c3c(O)cc(O)cc32)cc1 [Vanc-74] | 0.39 µM (≈ 0.644 µg/mL) | 4 | 1.56 µM (≈ 2.58 µg/mL) | 128 | 6.25 µM (≈ 10.3 µg/mL) | 64 | 12.5 µM (≈ 20.6 µg/mL) | 32 | 6.25 µM (≈ 10.3 µg/mL) | 64 | ≥ 250 µM | 78 ± 20 µM | 102 ± 46 µM | 143 µM | 0.39 µM (≈ 0.644 µg/mL) | 2 | 0.78 µM (≈ 1.29 µg/mL) | 8 | 1.56 µM (≈ 2.58 µg/mL) | 64 | MIC-fold improvement vs. vancomycin [13]: 4; MIC [13]: 0.20 µM (≈ 0.33 µg/mL); MIC-fold improvement vs. vancomycin [14]: 4; MIC [14]: 0.20 µM (≈ 0.33 µg/mL); MIC-fold improvement vs. vancomycin [15]: 4; MIC [15]: 0.20 µM (≈ 0.33 µg/mL); MIC-fold improvement vs. vancomycin [16]: 1; MIC [16]: 0.78 µM (≈ 1.29 µg/mL)
CCOc1ccc(-c2ccc(NC(=O)CNC(=O)C3NC(=O)C4NC(=O)C(NC(=O)C5NC(=O)C(CC(N)=O)NC(=O)C(NC(=O)C(CC(C)C)NC)C(O)c6ccc(c(Cl)c6)Oc6cc5cc(c6OC5OC(CO)C(O)C(O)C5OC5CC(C)(N)C(O)C(C)O5)Oc5ccc(cc5Cl)C4O)c4ccc(O)c(c4)-c4c(O)cc(O)cc43)cc2)cc1 (stereo not shown) [Vanc-86] | ≤0.05 µM | ≥32 | 1.56 µM (≈ 2.65 µg/mL) | 128 | 12.5 µM (≈ 21.3 µg/mL) | 32 | 3.13 µM (≈ 5.33 µg/mL) | 128 | 6.25 µM (≈ 10.6 µg/mL) | 64 | 3 ± 2.3 µM | 1 ± 0.2 µM | 9.8 ± 5.8 µM | 5 µM | 0.39 µM (≈ 0.664 µg/mL) | 2 | 0.78 µM (≈ 1.33 µg/mL) | 8 | 1.56 µM (≈ 2.65 µg/mL) | 64 | MIC-fold improvement vs. vancomycin [13]: 4; MIC [13]: 0.20 µM (≈ 0.34 µg/mL); MIC-fold improvement vs. vancomycin [14]: 2; MIC [14]: 0.39 µM (≈ 0.664 µg/mL); MIC-fold improvement vs. vancomycin [15]: 2; MIC [15]: 0.39 µM (≈ 0.664 µg/mL); MIC-fold improvement vs. vancomycin [16]: 4; MIC [16]: 0.20 µM (≈ 0.34 µg/mL)
